Drawing on patent US20240124460A1, “METHODS AND COMPOSITIONS FOR TARGETED PROTEIN DEGRADATION” (Ranok Therapeutics (Hangzhou) Co. Ltd., priority 2020, published 2024), this text covers EC50 and IC50 for twelve compounds.

pEC50, pIC50: −log10 of the molar value.

Experiment [1] relates to U-87 MG human glioblastoma. The experiment can be described thus: U87 MG CCK-8 proliferation assay. It is filed as cell-based. Particulars: Homo sapiens, U-87 MG, 72 h, U-87 MG cells, read-out: U87MG CCK-8. The gist of the method: (§1)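 CCK-8 absorbance read-out, with inhibition expressed against DMSO-treated cells after subtracting a cell-free DMSO medium blank. Compounds tested over a 3-fold dilution series spanning 20 μM to 1.02 nM; lines grown essentially as ATCC recommends.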
Background: Tetrazolium dyes change colour on reduction, which living cells bring about.

The target of experiment [2] is T1, HSP90α protein (Homo sapiens, UniProt P07900).
T1 construct: purchased BPS Bioscience #50298
The experiment can be described thus: HSP90α-binding FP (BODIPY) assay. The conditions noted are these: FP competition with BODIPY-labeled RNK04010. As for the experimental part: Binding of test compounds to HSP90α protein was measured by fluorescent polarization (FP) using the HSP90α (N-terminal) Assay Kit (BPS Bioscience, #50298), following the manufacturer's instructions, except as noted. Fluorescently labeled HSP90-binding compounds, either the provided FITC-geldanamycin (5 nM final concentration) or RNK04010, a triazolone-based HSP90 binding small molecule labeled with BODIPY through a piperazine-phenyl linker (5 nM final concentration) were employed. A 2.5-fold serial dilution of each test compound ranging from 20 μM to 5.2 nM was assayed for binding to HSP90α. After the final step of adding HSP90α protein to each assay well, plates were mixed by brief shaking, incubated at 25° C. for 120 min for FITC-geldanamycin or 300 min for RNK04010, and fluorescence was measured using a PerkinElmer EnVision Plate Reader.

The subject of experiment [3] is MV-4-11 human acute myeloid leukemia. The experiment can be described thus: MV-4-11 CCK-8 proliferation assay. It is filed as cell-based. Particulars: Homo sapiens, MV4-11; MV-4-11 cells, 72 hr. The gist of the method: as §1

Turning to `CCOc1cc(N2CCC(C(=O)N3CCN(Cc4ccc(-n5c(O)nnc5-c5cc(C(C)C)c(O)cc5O)cc4)[C@@H](C)C3)CC2)ccc1Nc1ncc2c(n1)N(C)c1ccccc1C(=O)N2C` [Compound 055, (S)-2-((4-(4-(4-(4-(3-(2,4-dihydroxy-5-isopropylphenyl)-5-hydroxy-4H-1,2,4-triazol-4-yl)benzyl)-3-methylpiperazine-1-carbonyl)piperidin-1-yl)-2-ethoxyphenyl)amino)-5,11-dimethyl-5,11-dihydro-6H-benzo[e]pyrimido[5,4-b][1,4]diazepin-6-one], the pEC50 is 6.00 to 7.00 in experiment [1] and above 7.00 in experiment [3]. In experiment [2], this compound gave a pIC50 of 6.00 to 7.00.

As to `CCOc1cc(N2CCC(C(=O)N3CCC(CN4CCN(Cc5ccc(-n6c(C(=O)NC7(C)CC7)nnc6-c6cc(CC)c(O)cc6O)cc5)CC4)CC3)CC2)ccc1Nc1ncc2c(n1)N(S(C)(=O)=O)c1ccccc1C(=O)N2C` [Compound 083, 4-(4-((4-((1-(1-(3-ethoxy-4-((5-methyl-11-(methylsulfonyl)-6-oxo-6,11-dihydro-5H-benzo[e]pyrimido[5,4-b][1,4]diazepin-2-yl)amino)phenyl)piperidine-4-carbonyl)piperidin-4-yl)methyl)piperazin-1-yl)methyl)phenyl)-5-(5-ethyl-2,4-dihydroxyphenyl)-N-(1-methylcyclopropyl)-4H-1,2,4-triazole-3-carboxamide], the pEC50 in experiment [1] and in experiment [3] was above 7.00 throughout. Further, the pIC50 in experiment [2] is above 7.00.

As for `CCOc1cc(N2CCC(C(=O)N3CCC(CN4CCN(Cc5ccc(-n6c(C(N)=O)nnc6-c6cc(CC)c(O)cc6O)cc5)CC4)CC3)CC2)ccc1Nc1ncc2c(n1)N(C)c1ccccc1C(=O)N2C` [Compound 034, 4-(4-((4-((1-(1-(4-((5,11-dimethyl-6-oxo-6,11-dihydro-5H-benzo[e]pyrimido[5,4-b][1,4]diazepin-2-yl)amino)-3-ethoxyphenyl)piperidine-4-carbonyl)piperidin-4-yl)methyl)piperazin-1-yl)methyl)phenyl)-5-(5-ethyl-2,4-dihydroxyphenyl)-4H-1,2,4-triazole-3-carboxamide], the pEC50 in experiment [1] was 6.00 to 7.00; in experiment [3] it was above 7.00. The pIC50 in experiment [2] is 6.00 to 7.00.

In the case of `CCOc1cc(N2CCC(C(=O)NCc3ccc(-n4c(O)nnc4-c4cc(CC)c(O)cc4O)cc3C(F)(F)F)CC2)ccc1Nc1ncc2c(n1)N(S(C)(=O)=O)c1ccccc1C(=O)N2C` [Compound 089, 1-(3-ethoxy-4-((5-methyl-11-(methylsulfonyl)-6-oxo-6,11-dihydro-5H-benzo[e]pyrimido[5,4-b][1,4]diazepin-2-yl)amino)phenyl)-N-(4-(3-(5-ethyl-2,4-dihydroxyphenyl)-5-hydroxy-4H-1,2,4-triazol-4-yl)-2-(trifluoromethyl)benzyl)piperidine-4-carboxamide], the pEC50 in experiment [1] was below 6.00; in experiment [3], 6.00 to 7.00. Also, the pIC50 in experiment [2] was 6.00 to 7.00.

Consider `CCOc1cc(N2CCC(C(=O)NCc3ccc(-n4c(O)nnc4-c4cc(CC)c(O)cc4O)cc3)CC2)ccc1Nc1ncc2c(n1)N(S(C)(=O)=O)c1ccccc1C(=O)N2C` [Compound 071, 1-(3-ethoxy-4-((5-methyl-11-(methylsulfonyl)-6-oxo-6,11-dihydro-5H-benzo[e]pyrimido[5,4-b][1,4]diazepin-2-yl)amino)phenyl)-N-(4-(3-(5-ethyl-2,4-dihydroxyphenyl)-5-hydroxy-4H-1,2,4-triazol-4-yl)benzyl)piperidine-4-carboxamide], for which the pEC50 in experiment [1] was below 6.00; in experiment [3] it was 6.00 to 7.00. In addition, in experiment [2], the pIC50 is 6.00 to 7.00.

Turning to `CCOc1cc(N2CCC(C(=O)N3CCN(CCOc4ccc(Nc5cc(-n6nc(C(F)(F)F)c7c6CC(C)(C)CC7=O)ccc5C(N)=O)cc4)CC3)CC2)ccc1Nc1ncc2c(n1)N(S(C)(=O)=O)c1ccccc1C(=O)N2C` [Compound 094, 4-(6,6-dimethyl-4-oxo-3-(trifluoromethyl)-4,5,6,7-tetrahydro-1H-indazol-1-yl)-2-((4-(2-(4-(1-(3-ethoxy-4-((5-methyl-11-(methylsulfonyl)-6-oxo-6,11-dihydro-5H-benzo[e]pyrimido[5,4-b][1,4]diazepin-2-yl)amino)phenyl)piperidine-4-carbonyl)piperazin-1-yl)ethoxy)phenyl)amino)benzamide], the results for the pEC50 in experiment [1] and in experiment [3] were below 6.00 and 6.00 to 7.00, respectively. This compound also gave a pIC50 in experiment [2] of 6.00 to 7.00.

For `CCOc1cc(N2CCC(C(=O)NCCOCCOCCNC(=O)O[C@H]3CC[C@H](Nc4cc(-n5nc(C(F)(F)F)c6c5CC(C)(C)CC6=O)ccc4C(N)=O)CC3)CC2)ccc1Nc1ncc2c(n1)N(S(C)(=O)=O)c1ccccc1C(=O)N2C` [Compound 116, (1R,4R)-4-((2-carbamoyl-5-(6,6-dimethyl-4-oxo-3-(trifluoromethyl)-4,5,6,7-tetrahydro-1H-indazol-1-yl)phenyl)amino)cyclohexyl (2-(2-(2-(1-(3-ethoxy-4-((5-methyl-11-(methylsulfonyl)-6-oxo-6,11-dihydro-5H-benzo[e]pyrimido[5,4-b][1,4]diazepin-2-yl)amino)phenyl)piperidine-4-carboxamido)ethoxy)ethoxy)ethyl)carbamate], the pEC50 was below 6.00 in experiment [1] and 6.00 to 7.00 in experiment [3]. For the same compound, in experiment [2], the pIC50 was below 6.00.

For `CCCc1cc(-c2nnc(O)n2-c2ccc(CN3CCN(C(=O)C4CCN(c5ccc(Nc6ncc7c(n6)N(S(C)(=O)=O)c6ccccc6C(=O)N7C)c(OCC)c5)CC4)CC3)cc2)c(O)cc1O` [Compound 087, 2-((4-(4-(4-(4-(3-(2,4-dihydroxy-5-propylphenyl)-5-hydroxy-4H-1,2,4-triazol-4-yl)benzyl)piperazine-1-carbonyl)piperidin-1-yl)-2-ethoxyphenyl)amino)-5-methyl-11-(methylsulfonyl)-5,11-dihydro-6H-benzo[e]pyrimido[5,4-b][1,4]diazepin-6-one], the pEC50 was 6.00 to 7.00 in experiment [1] and above 7.00 in experiment [3]. Also, the pIC50 in experiment [2] is 6.00 to 7.00.

As to `CCOc1cc(N2CCC(C(=O)N3CCC(Cc4ccc(CN(C)Cc5ccc(-n6c(C(=O)NCC(F)(F)F)nnc6-c6cc(CC)c(O)cc6O)cc5)cc4)CC3)CC2)ccc1Nc1ncc2c(n1)N(S(C)(=O)=O)c1ccccc1C(=O)N2C` [Compound 097, 4-(4-(((4-((1-(1-(3-ethoxy-4-((5-methyl-11-(methylsulfonyl)-6-oxo-6,11-dihydro-5H-benzo[e]pyrimido[5,4-b][1,4]diazepin-2-yl)amino)phenyl)piperidine-4-carbonyl)piperidin-4-yl)methyl)benzyl)(methyl)amino)methyl)phenyl)-5-(5-ethyl-2,4-dihydroxyphenyl)-N-(2,2,2-trifluoroethyl)-4H-1,2,4-triazole-3-carboxamide], the pEC50 is below 6.00 in experiment [1] and above 7.00 in experiment [3]. The same compound had a pIC50 in experiment [2] of 6.00 to 7.00.

`CCCc1cc(-c2nnc(O)n2-c2ccc(CN3CCN(CC4CCN(C(=O)C5CCN(c6ccc(Nc7ncc8c(n7)N(C)c7ccccc7C(=O)N8C)c(OCC)c6)CC5)CC4)CC3)cc2)c(O)cc1O` [Compound 020, 2-((4-(4-(4-((4-(4-(3-(2,4-dihydroxy-5-propylphenyl)-5-hydroxy-4H-1,2,4-triazol-4-yl)benzyl)piperazin-1-yl)methyl)piperidine-1-carbonyl)piperidin-1-yl)-2-ethoxyphenyl)amino)-5,11-dimethyl-5,11-dihydro-6H-benzo[e]pyrimido[5,4-b][1,4]diazepin-6-one]: the pEC50 in experiment [1] and in experiment [3] was 6.00 to 7.00 throughout. Besides, the pIC50 in experiment [2] was 6.00 to 7.00.

Compound `CCOc1cc(N2CCC(C(=O)N3CCC(CN4CCN(Cc5ccc(-n6c(C(=O)NC(C)C(F)(F)F)nnc6-c6cc(CC)c(O)cc6O)cc5)CC4)CC3)CC2)ccc1Nc1ncc2c(n1)N(S(C)(=O)=O)c1ccccc1C(=O)N2C` (stereo not shown) [Compound 107, 4-(4-((4-((1-(1-(3-ethoxy-4-((5-methyl-11-(methylsulfonyl)-6-oxo-6,11-dihydro-5H-benzo[e]pyrimido[5,4-b][1,4]diazepin-2-yl)amino)phenyl)piperidine-4-carbonyl)piperidin-4-yl)methyl)piperazin-1-yl)methyl)phenyl)-5-(5-ethyl-2,4-dihydroxyphenyl)-N-(1,1,1-trifluoropropan-2-yl)-4H-1,2,4-triazole-3-carboxamide] showed a pIC50 in experiment [2] of 6.00 to 7.00. Further, the pEC50 in experiment [3] is above 7.00.

Regarding `CCOc1cc(N2CCC(C(=O)N3CCC(CN4CCN(CCOc5ccc(Nc6cc(-n7nc(C(F)(F)F)c8c7CC(C)(C)CC8=O)ccc6C(N)=O)cc5)CC4)CC3)CC2)ccc1Nc1ncc2c(n1)N(S(C)(=O)=O)c1ccccc1C(=O)N2C` [Compound 138, 4-(6,6-dimethyl-4-oxo-3-(trifluoromethyl)-4,5,6,7-tetrahydro-1H-indazol-1-yl)-2-((4-(2-(4-((1-(1-(3-ethoxy-4-((5-methyl-11-(methylsulfonyl)-6-oxo-6,11-dihydro-5H-benzo[e]pyrimido[5,4-b][1,4]diazepin-2-yl)amino)phenyl)piperidine-4-carbonyl)piperidin-4-yl)methyl)piperazin-1-yl)ethoxy)phenyl)amino)benzamide], the pIC50 in experiment [2] was below 6.00. Further, the pEC50 in experiment [3] was 6.00 to 7.00.

What is called pIC50 is the negative decadic logarithm of the IC50, by convention in mol/L.
